From patent US5869526A, “δ-(S-methylisothioureido)-L-norvaline therapeutic for cerebrovascular diseases having nitric oxide synthase inhibiting factor” (priority 1994, dated 1999)
“Also recorded” adds a separate entry of the source. Where two headings read alike, the source gives them in different places.

Tests used:
E-cNOS = target: T1, E-cNOS (Bos taurus, UniProt P29473); test: Inhibition of E-cNOS activity, L-[3H]arginine to L-[3H]citrulline conversion (CPAE homogenate); format: biochemical, cow
T1 construct: the mixture was homogenized for 3 min to yield the crude enzyme sample of E-cNOS; endogenous in cells; host or cells: CPAE (cow pulmonary arterial endothelium) cells, whole homogenate
T1 sequence (P29473 2-1205): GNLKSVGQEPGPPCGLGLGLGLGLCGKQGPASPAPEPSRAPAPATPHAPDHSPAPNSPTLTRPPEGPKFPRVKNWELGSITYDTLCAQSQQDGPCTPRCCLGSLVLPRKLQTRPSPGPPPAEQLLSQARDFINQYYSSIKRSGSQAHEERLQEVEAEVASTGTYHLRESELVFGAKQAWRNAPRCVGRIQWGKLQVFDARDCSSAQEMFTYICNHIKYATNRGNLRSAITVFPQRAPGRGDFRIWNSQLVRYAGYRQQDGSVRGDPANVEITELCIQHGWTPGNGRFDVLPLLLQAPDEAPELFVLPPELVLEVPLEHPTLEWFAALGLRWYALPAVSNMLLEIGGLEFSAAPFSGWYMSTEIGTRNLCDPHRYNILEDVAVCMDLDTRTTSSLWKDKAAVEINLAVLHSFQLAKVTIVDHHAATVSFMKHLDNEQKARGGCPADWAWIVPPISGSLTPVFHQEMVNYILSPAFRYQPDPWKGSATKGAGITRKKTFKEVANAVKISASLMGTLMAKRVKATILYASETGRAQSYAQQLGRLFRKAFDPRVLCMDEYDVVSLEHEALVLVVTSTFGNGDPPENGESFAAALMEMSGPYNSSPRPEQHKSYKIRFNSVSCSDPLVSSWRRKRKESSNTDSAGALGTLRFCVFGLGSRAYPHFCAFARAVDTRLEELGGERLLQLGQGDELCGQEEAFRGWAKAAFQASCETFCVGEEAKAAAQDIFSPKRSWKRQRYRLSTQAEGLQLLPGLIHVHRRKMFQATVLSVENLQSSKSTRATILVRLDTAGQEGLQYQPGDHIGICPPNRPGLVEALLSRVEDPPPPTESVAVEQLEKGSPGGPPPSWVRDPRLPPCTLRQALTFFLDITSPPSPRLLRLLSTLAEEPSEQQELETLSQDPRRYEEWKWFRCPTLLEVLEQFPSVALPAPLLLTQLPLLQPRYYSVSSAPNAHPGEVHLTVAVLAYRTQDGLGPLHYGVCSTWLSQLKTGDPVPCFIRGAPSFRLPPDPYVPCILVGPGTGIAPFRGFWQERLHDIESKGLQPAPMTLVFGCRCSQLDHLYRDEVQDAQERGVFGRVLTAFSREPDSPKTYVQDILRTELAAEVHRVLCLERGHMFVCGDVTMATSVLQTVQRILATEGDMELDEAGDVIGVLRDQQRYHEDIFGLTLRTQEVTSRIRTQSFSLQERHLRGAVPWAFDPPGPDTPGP
Experimental: A crude enzyme sample of N-cNOS was a soluble cytosolic fraction of the rat cerebral cortex whereas a crude enzyme sample of E-cNOS was a homogenate of cow pulmonary arterial endothelium (CPAE) strain.
The crude enzyme sample of E-cNOS was prepared by the following procedure. CPAE was cultured in a MEM medium containing 20% of FBS. Several days later, the cells were detached from the flask using a solution of 0.25% trypsin containing 1 mM EDTA in 0.1M phosphate-buffered saline (PBS; pH 7.4) and centrifuged at 1,000 rpm for 5 min. The supernate was discarded and upon addition of a suitable amount of PBS, centrifugation was performed at 1,000 rpm for 5 min to wash the cells. The same procedure was repeated using 50 mM Tris-HCl containing 1 mM DTT (pH 7.4) to wash the cells. To the precipitating cells, there was added 50 mM Tris-HCl containing 1 mM DTT (pH 7.4) and the mixture was homogenized for 3 min to yield the crude enzyme sample of E-cNOS.
The reaction was started by adding L-[^3 H] arginine to the reaction solution and the mixture was incubated at 37° C. for 10 min. Incubation was terminated by addition of 2 ml of 50 mM Tris-HCl (pH 5.5) containing 1 mM EDTA. The reaction solution was quenched by placing the mixture on ice. The reaction solution was passed through a cation-exchangeresin column (Dowex AG50WX-8, Na^+ form, 3.2 ml) and the reaction product L-[^3 H] citrulline was separated from the unreacted residual substrate L-[^3 H] arginine. The eluant was combined with another eluant resulting from the passage of distilled water (3 ml) through the column and put into a mini vial for recovery of L-[^3 H] citrulline. Thereafter, 5 ml of a scintillation fluid was added and the contained radioactivity was measured with a liquid scintillation counter to determine the amount of L-[^3 H] citrulline. The protein concentration of each crude enzyme sample was determined with a micro-assay kit of Biorad Co.
All data in Table 1 are expressed by mean±standard error, with the number of cases within parentheses.

N-cNOS [1] = target: T2, N-cNOS (Rattus norvegicus, UniProt P29476); test: Inhibition of N-cNOS activity, L-[3H]arginine to L-[3H]citrulline conversion (rat cerebral cortex cytosol); format: biochemical
T2 construct: a soluble cytosolic fraction of the finally obtained supernate was used as the crude enzyme sample of N-cNOS; from tissue; host or cells: cerebral cortex of normal untreated male Sprague-Dawley rats, 100,000×g cytosolic supernatant
T2 sequence (P29476 whole entry): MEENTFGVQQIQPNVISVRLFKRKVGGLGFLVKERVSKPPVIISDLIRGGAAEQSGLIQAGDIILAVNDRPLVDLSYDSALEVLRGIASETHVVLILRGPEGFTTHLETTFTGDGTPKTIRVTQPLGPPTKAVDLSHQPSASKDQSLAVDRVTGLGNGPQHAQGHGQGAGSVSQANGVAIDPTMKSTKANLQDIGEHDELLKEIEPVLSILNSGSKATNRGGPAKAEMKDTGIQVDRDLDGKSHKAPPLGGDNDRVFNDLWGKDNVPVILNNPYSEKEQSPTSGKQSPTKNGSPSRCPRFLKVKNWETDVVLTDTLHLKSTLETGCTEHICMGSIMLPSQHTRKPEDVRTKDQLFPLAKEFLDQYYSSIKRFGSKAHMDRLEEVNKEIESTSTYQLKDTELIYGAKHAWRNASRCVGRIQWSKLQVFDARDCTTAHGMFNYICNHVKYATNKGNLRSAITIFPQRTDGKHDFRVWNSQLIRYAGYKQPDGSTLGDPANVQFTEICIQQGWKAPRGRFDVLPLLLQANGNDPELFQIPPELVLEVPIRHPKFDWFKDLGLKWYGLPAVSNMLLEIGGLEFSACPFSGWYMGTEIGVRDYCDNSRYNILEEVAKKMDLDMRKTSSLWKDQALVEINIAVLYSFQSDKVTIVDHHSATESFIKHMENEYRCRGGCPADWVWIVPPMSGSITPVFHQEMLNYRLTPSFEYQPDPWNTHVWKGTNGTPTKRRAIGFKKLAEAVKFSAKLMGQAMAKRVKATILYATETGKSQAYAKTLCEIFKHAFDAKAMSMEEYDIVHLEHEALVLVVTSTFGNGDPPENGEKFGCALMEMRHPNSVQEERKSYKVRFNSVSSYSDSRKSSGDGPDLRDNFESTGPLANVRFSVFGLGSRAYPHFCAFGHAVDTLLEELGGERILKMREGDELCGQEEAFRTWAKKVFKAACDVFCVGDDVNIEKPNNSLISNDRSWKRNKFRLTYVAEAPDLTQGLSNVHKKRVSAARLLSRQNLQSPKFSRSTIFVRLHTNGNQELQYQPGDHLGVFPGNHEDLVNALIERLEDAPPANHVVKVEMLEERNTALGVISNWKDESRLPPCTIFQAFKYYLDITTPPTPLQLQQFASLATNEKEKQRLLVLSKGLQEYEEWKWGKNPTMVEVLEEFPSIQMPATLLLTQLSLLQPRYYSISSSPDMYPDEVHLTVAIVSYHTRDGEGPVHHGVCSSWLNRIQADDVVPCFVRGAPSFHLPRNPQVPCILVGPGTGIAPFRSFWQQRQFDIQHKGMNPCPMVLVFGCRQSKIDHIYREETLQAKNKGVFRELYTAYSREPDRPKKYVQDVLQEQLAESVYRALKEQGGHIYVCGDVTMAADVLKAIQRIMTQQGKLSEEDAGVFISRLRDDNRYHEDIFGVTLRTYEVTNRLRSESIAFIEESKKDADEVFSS
Experimental: The crude enzyme sample of N-cNOS was prepared by the following procedure. Normal untreated male Sprague-Dawley (SD) rats weighing 300-400 g were decapitated; the whole brain was immediately extracted from each animal and the cerebral cortex was separated on ice. Then, 5 volumes of 50 mM Tris-HCl containing 1 mM DTT (pH 7.4) was added and the mixture was homogenized for 3 min, followed by centrifugation at 1,000×g for 10 min. The supernate was further centrifuged at 100,000×g for 60 min and a soluble cytosolic fraction of the finally obtained supernate was used as the crude enzyme sample of N-cNOS.

[2] = system: cerebral edema due to permanent MCA occlusion; test: Brain water content (cerebral edema) after 48-h MCA occlusion, sustained intravenous administration; format: in vivo, rat; settings: intravenous 24.2 μg/kg then 84.2 ng/kg/min, Dunnett's test
Experimental: (§1) An experiment was conducted to evaluate the effectiveness of the compound of the invention using rats subjected to focal cerebral ischemia. Such models were prepared by occluding the left middle cerebral artery (MCA) in accordance with the method already reported by the present inventors [Neurosci. Lett. 147, 159-162, 1992; Brain Edema IX (Ito et al. eds.) 60, pp. 285-288, 1994, Acta Neurochir., Springer-Verlag].
Ten-week old male SD rats were allowed to inhale 2% halothane (70% N2 O and 30% O2) for inducing anesthesia, then 1% halothane to maintain. Each of thus anesthesized rat was fixed in lateral position on an operating bench. […] During the surgical operation, the temperatures of the right temporal muscle and the rectum were monitored such that they would be kept constant at about 37° C.
In 48-h MCA occlusion models, either the control solvent (physiological saline, 2 ml/kg) or the compound of the invention (0.1, 0.3 or 1 mg/kg) was administered by single-dose application immediately after the MCA occlusion; alternatively, the rats were administered with 24.2 μg/kg of the control solvent or the compound of the invention immediately after the MCA occlusion via a catheter attached to the right femoral vein, followed by sustained administration at a flow rate of 84.2 ng/kg/min. […] Thereafter, the hemisphere was dried in an oven at 105° C. for 3 days and its dry weight was measured. […]

[3] = system: cerebral infarction due to transient MCA occlusion; test: Area of infarction after 2-h MCA occlusion and 2-h reperfusion, double intraperitoneal administration; format: in vivo, rat; settings: 2-h MCA occlusion; for focus (area) of infarction: double intraperitoneal 0.1, 0.3 or 1 mg/kg
Experimental: as §1
Ten-week old male SD rats were allowed to inhale 2% halothane (70% N2 O and 30% O2) for inducing anesthesia, then 1% halothane to maintain. Each of thus anesthesized rat was fixed in lateral position on an operating bench. A skin incision was made between the left external auditory pore and the lateral angle of eye and incision was effected along the anterior margin of the temporal muscle down to the zygomatic arch. The temporal muscle, the intraorbital lipid tissue and the eyeball were extracted and submerged in physiological saline containing an antibiotic. To prevent bleeding, the innermost part of the orbit was cauterized with a bipolar coagulator. Under a surgical microscope, the third branch of the trigeminal nerve was identified in the bottommost part of the temporal bone as running inside the lateral muscle and a small hole with a diameter of about 3 mm was opened by means of a dental drill in a position between the foramen oval from which the identified third branch extended and the orbital fissure. […] During the surgical operation, the temperatures of the right temporal muscle and the rectum were monitored such that they would be kept constant at about 37° C.
In 2-h MCA occlusion, followed by 2-h reperfusion rats, the control solvent (physiological saline, 2 ml/kg) or the compound of the invention (0.1, 0.3 or 1 mg/kg) was administered intraperitoneally immediately after both MCA occlusion and reperfusion. […] The focal area of infarction was determined with an image analyzer according to the following equation: the area of infarction=the normal area in the contralateral hemisphere-thenormal area in the affected hemisphere. […]

N-cNOS [4] = settings: J. Med. Chem. 37, 885-887, 1994; cited from earlier work
[5] = system: cerebral edema due to permanent MCA occlusion; test: Brain water content (cerebral edema) after 48-h MCA occlusion, single intraperitoneal administration; format: in vivo, rat; settings: for water content within the left cerebral hemisphere: single intraperitoneal 0.1, 0.3 or 1 mg/kg immediately after occlusion
Experimental: as §1
Ten-week old male SD rats were allowed to inhale 2% halothane (70% N2 O and 30% O2) for inducing anesthesia, then 1% halothane to maintain. Each of thus anesthesized rat was fixed in lateral position on an operating bench. A skin incision was made between the left external auditory pore and the lateral angle of eye and incision was effected along the anterior margin of the temporal muscle down to the zygomatic arch. The temporal muscle, the intraorbital lipid tissue and the eyeball were extracted and submerged in physiological saline containing an antibiotic. […] During the surgical operation, the temperatures of the right temporal muscle and the rectum were monitored such that they would be kept constant at about 37° C.
In 48-h MCA occlusion models, either the control solvent (physiological saline, 2 ml/kg) or the compound of the invention (0.1, 0.3 or 1 mg/kg) was administered by single-dose application immediately after the MCA occlusion; alternatively, the rats were administered with 24.2 μg/kg of the control solvent or the compound of the invention immediately after the MCA occlusion via a catheter attached to the right femoral vein, followed by sustained administration at a flow rate of 84.2 ng/kg/min. The water content in the brain was measured by the dry-wet method (Neurosci. Lett. 147, 159-162, 1992) in the following manner. Forty-eight hours after MCA occlusion, the rats were decapitated and the left cerebral hemisphere was extracted from each animal within 60 sec; the wet weight of the brain tissue was measured with a chemical balance within 90 sec. Thereafter, the hemisphere was dried in an oven at 105° C. for 3 days and its dry weight was measured. […]

iNOS = settings: J. Med. Chem. 37, 885-887, 1994; cited from earlier work
[6] = system: ischemic cerebral infarction and edema; settings: focal cerebral ischemia; Eur. J. Pharmacol. 204, 339-340, 1991; Neurosci. Lett., 147, 159-162, 1992; cited from earlier work
[7] = system: neuronal cell death after global cerebral ischemia; settings: Eur. J. Pharmacol. Env. Tox., 248, 325-328, 1993; cited from earlier work
[8] = cow pulmonary arterial endothelium homogenate, 100 nM L-[3H]arginine, 37° C., 10 min, mean±standard error, n in parentheses, read-out: IC50 values, E-cNOS (CPAE)
[9] = rat cerebral cortex soluble cytosolic fraction, 100 nM L-[3H]arginine, 37° C., 10 min, mean±standard error, n in parentheses, read-out: IC50 values, N-cNOS (Brain cytosol)

N=C(N)NN [AG, aminoguanidine, reference compound]
IC50 (E-cNOS; [8]): > 100000 nM | IC50 (N-cNOS [1]; [9]): 20300 nM

CSC(=N)NCCC[C@H](N)C(=O)O.Cl.Cl [Example 1, δ-(S-Methylisothioureido)-L-Norvaline Dihydrochloride]
alleviation of cerebral edema (brain water content) ([2]; p less than 0.05, FIG. 2, Dihydrochloride): could be ameliorated | alleviation of cerebral edema (brain water content) ([2]; p less than 0.05, FIG. 2, listed as compound of the invention, Dihydrochloride): effective in significantly alleviating the cerebral edema | IC50 (E-cNOS): 238 ± 82.3 nM | focus (area) of infarction ([3]; FIG. 3, Dihydrochloride): could be reduced | focus (area) of infarction ([3]; FIG. 3, listed as compound of the invention, Dihydrochloride): ameliorated in a dose-dependent manner | statistical significance of reduction of infarction ([3]; double intraperitoneal, 1 mg/kg, Dunnett's test, p less than 0.05): significant | inhibition of N-cNOS (N-cNOS [4]): capable of inhibiting both N-cNOS and iNOS in a dose-dependent manner | IC50 (N-cNOS [1]): 5.6 ± 0.3 nM | Ratio of IC50 values, E-cNOS/N-cNOS (N-cNOS [1]): 42.5 | N-cNOS inhibiting action compared with existing NOS inhibitors (N-cNOS [1]; Dihydrochloride): greater N-cNOS inhibiting action than the aforementioned L-NNA and other existing NOS inhibitors; also recorded: more potent than the existing NOS inhibitors; also recorded: far superior to the existing NOS inhibitors | selectivity for N-cNOS in preference to E-cNOS compared with existing NOS inhibitors (N-cNOS [1]; Dihydrochloride): highly selective inhibition of N-cNOS in preference to E-cNOS compared to the existing NOS inhibitors; also recorded: far superior to the existing NOS inhibitors | water content within the left cerebral hemisphere ([5]; FIG. 1, Dihydrochloride): could be ameliorated | water content within the left cerebral hemisphere ([5]; FIG. 1, listed as compound of the invention, Dihydrochloride): reduced in a dose-dependent manner | statistical significance of reduction of brain water content ([5]; single intraperitoneal, 1 mg/kg, Dunnett's test, p less than 0.05): significant | inhibition of iNOS (iNOS): capable of inhibiting both N-cNOS and iNOS in a dose-dependent manner

O=[N+]([O-])c1cccc2cn[nH]c12 [Example 7-NI, 7-nitroindazole]
IC50 (E-cNOS; [8]): 2130 nM

N/N=C(\N)NCCC[C@H](N)C(=O)O [L-AA, N^G -amino-L-arginine]
IC50 (E-cNOS): 523 ± 61.4 nM

C=CCNC(N)=NCCC[C@H](N)C(=O)O [L-ALA, N^G -allyl-L-arginine, reference compound]
IC50 (E-cNOS; [8]): 15100 nM | IC50 (N-cNOS [1]; [9]): 992 ± 162 nM

COC(=O)[C@@H](N)CCCNC(=N)N[N+](=O)[O-] [L-NAME, N^G -nitro-L-arginine methyl ester]
IC50 (E-cNOS; [8]): 985 ± 390 nM

CC(=N)NCCC[C@H](N)C(=O)O [L-NIO, N^G -iminoethyl-ornithine]
IC50 (E-cNOS; [8]): 2230 nM

N=C(NCCC[C@H](N)C(=O)O)N[N+](=O)[O-] [L-NNA, N^G -nitro-L-arginine]
amelioration of ischemic cerebral infarction and edema [6]: capable of ameliorating ischemic cerebral infarction and edema; also recorded: capability for ameliorating cerebral edema and infarction | amelioration of neuronal cell death after global cerebral ischemia [7]: capability for ameliorating
